From US20210403864A1, “METHODS AND COMPOSITIONS FOR TREATING ACTIVATED G-ALPHA Q MUTANT CANCERS OR MELANOCYTIC MALIGNANCIES” (Memorial Sloan Kettering Cancer Center, priority 2018, published 2021)
Where a chain is given by its changes, count along the chain named.

Tests used:
Assay in all cases: IP1 accumulation assay in mutation dependent melan-a cells
Assay type in all cases: cell-based, mouse
[1] = system: CYSLTR2^L129Q; conditions: 24-hour treatment
Experimental: (§1) Cells were treated with increasing concentrations of YM-254890 (YM) for 3 hours (top) and 24 hours (bottom). Error bars, s.e.m. from three biological replicates, each with three technical replicates.
(§2) Cell Culture and in vitro analysis. Mutation dependent melan-a cells were generated by transducing cells with cDNAs in MSCV-PURO (retrovirus) and then selecting cells with puromycin (1 μg/ml) for two days. TPA (Sigma-Aldrich, St. Louis, Mo.) was then withdrawn from cultures. Cells with activating mutations (CYSLTR2^L129Q, GNAQ^G48V/R183Q/Q209L, KRAS^G12V, and BRAF^V600E) continued to proliferate over several passages (>2 weeks) and were then validated with qRT-PCR and immunoblots. Vector and WT controls were unable to maintain proliferation after a couple passages upon TPA withdrawal. All cells were cultured in media containing 10% FBS, L-glutamine ([…]), penicillin (100 U/ml), streptomycin (100 μg/ml). Melan-a cells provided by D. Bennett, St. George's Hospital, University of London (Johnson C P, et al., PLoS One. 12(6):1-17 (2017)), were cultured in RPMI supplemented with 200 nM TPA unless otherwise noted. HEK293T (from ATCC, Manassas, Va.) cells were cultured in DMEM-Q and UVM cells were cultured in RPMI. All cells tested negative for mycoplasma. Cell growth assays and YM dose response curves were assayed using CellTiter-glo 2.0 (Promega, Madison, Wis.) at given time points or after five days of incubation with YM and readout on a Glomax Luminometer (Promega, Madison, Wis.). IC50 values were calculated using Prism 7.0 software. Growth assays were compared to day 1 readings and dose response curves were compared to vehicle. Data shown is representative of at least three independent experiments with at least three technical replicates. Dose-response curves and growth assays were analyzed using GraphPad Prism 7.0 software.
(§3) IP1 Accumulation Assay. IP1 concentrations in GNAQ-transfected HEK293T cells, GNAQ-expressing melan-a cells and uveal melanoma cells was measured using a competitive homogenous time resolved fluorescence (HTRF) assay (CisBio, Bedford, Mass.). Briefly, 9,000 transiently transfected-HEK293T cells, 5,000 melan-a cells and 5,000 uveal melanoma cells were seeded in low-volume 384-well plates in 7 μL media for 24 hours prior YM-254890 treatment. Cells were then treated with various concentrations of YM-254890 diluted in the appropriate media at 37° C. for 3 hours or 24 hours. 1 h prior lysis, cells were supplemented with 1× Stimulation Buffer provided by the manufacturer (HEPES 10 mM, CaCl2) 1 mM, MgCl2 0.5 mM, KCl 4.2 mM, NaCl 146 mM, glucose 5.5 mM, LiCl 50 mM, pH 7.4) with 0.2% BSA and 50 mM of LiCl (to prevent IP1 degradation). Following incubation, cells were lysed by adding 3 μL/well of d2-labeled IP1 analogue as the fluorescence acceptor and the Terbium cryptate-labeled anti-IP1 mAb as the fluorescence donor, diluted in the kit-supplied lysis buffer. The plates were incubated overnight at RT and time-resolved fluorescence signals were read using the BioTek Synergy NEO plate reader (BioTek Instruments, Winooski, Vt.) at 620 nm and […]. Results were calculated as a 665 nm/620 nm signal ratio, and IP1 concentrations were interpolated from a standard curve prepared using the supplied IP1 calibrator. Results are shown as IP1 (nM). Dose-response curves and bar graphs were analyzed using GraphPad Prism 7.0 software.

[2] = biological target: T1, GNAQ^G48V (Homo sapiens, UniProt P50148, G48V)
T1 construct: host or cells: melan-a (immortalized mouse melanocytes), retroviral transduction with MSCV-Puro
T1 sequence (P50148 1-359 G48V): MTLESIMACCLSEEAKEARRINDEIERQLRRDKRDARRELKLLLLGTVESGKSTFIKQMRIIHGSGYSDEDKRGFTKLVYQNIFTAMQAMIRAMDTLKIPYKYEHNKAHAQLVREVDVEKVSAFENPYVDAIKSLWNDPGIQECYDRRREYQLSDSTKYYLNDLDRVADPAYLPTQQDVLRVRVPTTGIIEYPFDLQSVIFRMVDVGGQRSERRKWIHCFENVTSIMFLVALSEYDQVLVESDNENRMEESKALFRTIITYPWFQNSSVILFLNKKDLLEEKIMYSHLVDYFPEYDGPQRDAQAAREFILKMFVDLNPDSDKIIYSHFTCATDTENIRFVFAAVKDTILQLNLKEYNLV
Experimental: as §1, §2, §3

[3] = biological target: T2, GNAQ^Q209L (Homo sapiens, UniProt P50148, Q209L)
T2 construct: host or cells: melan-a (immortalized mouse melanocytes), retroviral transduction with MSCV-Puro
T2 sequence (P50148 1-359 Q209L): T1 sequence (P50148 1-359 G48V) with V48G, Q209L
Experimental: as §1, §2, §3

[4] = biological target: T3, GNAQ^R183Q (Homo sapiens, UniProt P50148, R183Q)
T3 construct: host or cells: melan-a (immortalized mouse melanocytes), retroviral transduction with MSCV-Puro
T3 sequence (P50148 1-359 R183Q): T1 sequence (P50148 1-359 G48V) with V48G, R183Q
Experimental: as §1, §2, §3

YM-254890
inhibition of IP1 accumulation [1]: completely inhibited | relative sensitivity to YM (IP1 accumulation) [1]: most sensitive | inhibition of IP1 accumulation ([2]; 24-hour treatment): completely inhibited | relative sensitivity to YM (IP1 accumulation) ([2]; 24-hour treatment): most sensitive | sensitivity of IP1 accumulation after 3 hours versus 24 hours ([2]; 3 hours of treatment): less sensitive | fold less sensitive than CYSLTR2^L129Q and GNAQ^G48V mutants (IP1 accumulation) ([3]; 24-hour treatment): approximately 10 fold | inhibition of IP1 accumulation ([3]; 24-hour treatment): completely inhibited | sensitivity of IP1 accumulation after 3 hours versus 24 hours ([3]; 3 hours of treatment): less sensitive | inhibition of IP1 accumulation ([3]; 3 hours of treatment, even at high doses of YM): only partially inhibited | fold less sensitive than CYSLTR2^L129Q and GNAQ^G48V mutants (IP1 accumulation) ([4]; 24-hour treatment): approximately 10 fold | inhibition of IP1 accumulation ([4]; 24-hour treatment): completely inhibited | sensitivity of IP1 accumulation after 3 hours versus 24 hours ([4]; 3 hours of treatment): less sensitive
